Test results published in PMC2864230 (Nature chemical biology, 2009).

Experiments:
[1] = molecular target: T1, ERα (Homo sapiens, UniProt P03372); test: Competitive binding with E2-Alexa633 in COS7 cells transfected with ERα-GFP
T1 sequence (P03372 1-595): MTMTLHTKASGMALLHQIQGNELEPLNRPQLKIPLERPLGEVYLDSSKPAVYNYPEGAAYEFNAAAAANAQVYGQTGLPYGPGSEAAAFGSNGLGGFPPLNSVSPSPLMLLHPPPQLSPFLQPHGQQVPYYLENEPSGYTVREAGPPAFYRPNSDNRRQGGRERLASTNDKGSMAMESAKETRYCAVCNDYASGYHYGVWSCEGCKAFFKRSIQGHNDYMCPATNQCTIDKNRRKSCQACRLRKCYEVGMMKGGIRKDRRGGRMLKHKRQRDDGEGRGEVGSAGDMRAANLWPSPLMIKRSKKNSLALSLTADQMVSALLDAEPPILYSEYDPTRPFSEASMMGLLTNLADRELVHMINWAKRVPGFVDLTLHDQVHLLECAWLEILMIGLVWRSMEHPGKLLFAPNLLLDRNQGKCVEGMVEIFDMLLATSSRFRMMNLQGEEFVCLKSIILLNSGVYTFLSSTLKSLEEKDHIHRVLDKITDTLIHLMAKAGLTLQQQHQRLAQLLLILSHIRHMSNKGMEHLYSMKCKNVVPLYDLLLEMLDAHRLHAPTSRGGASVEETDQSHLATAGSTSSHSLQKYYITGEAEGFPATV

[2] = molecular target: T2, GPR30 (Homo sapiens, UniProt Q99527); test: Intracellular calcium mobilization in indo1-AM-loaded SKBr3 cells; type: cell-based; details: G15 1 μM
[3] = molecular target: T2, GPR30; test: PI3K activation; type: cell-based; details: GPR30-transfected COS7 cells
[4] = molecular target: T1, ERα; test: PI3K activation; type: cell-based; details: ERα-transfected COS7 cells; concentrations 100-fold greater than required to inhibit GPR30
[5] = molecular target: ERβ (Homo sapiens, UniProt Q92731); test: PI3K activation; type: cell-based; details: ERβ-transfected COS7 cells; concentrations 100-fold greater than required to inhibit GPR30
[6] = molecular target: T2, GPR30; test: PI3K activation; type: cell-based; details: SKBr3 cells
[7] = test system: uterine epithelia; test: Mouse uterine estrogenicity assay; type: in vivo; details: G15 plus E2 (0.74 nmol); dose-dependent, maximal at 10-fold molar excess of G15
[8] = test system: adult male ICR mice; test: Mouse depression assay; type: in vivo; details: intraperitoneal

T2 sequence (Q99527 whole entry): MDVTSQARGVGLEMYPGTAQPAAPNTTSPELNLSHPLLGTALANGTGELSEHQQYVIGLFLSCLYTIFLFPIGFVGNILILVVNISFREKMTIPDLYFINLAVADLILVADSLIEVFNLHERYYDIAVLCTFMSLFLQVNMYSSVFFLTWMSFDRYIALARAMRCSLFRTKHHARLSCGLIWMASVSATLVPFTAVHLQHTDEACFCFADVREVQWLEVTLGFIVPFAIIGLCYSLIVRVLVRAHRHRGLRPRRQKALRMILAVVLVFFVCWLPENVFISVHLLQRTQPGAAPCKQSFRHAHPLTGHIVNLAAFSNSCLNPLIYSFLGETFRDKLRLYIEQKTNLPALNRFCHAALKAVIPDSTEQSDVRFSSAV
ERβ, sequence (Q92731 whole entry, species assumed): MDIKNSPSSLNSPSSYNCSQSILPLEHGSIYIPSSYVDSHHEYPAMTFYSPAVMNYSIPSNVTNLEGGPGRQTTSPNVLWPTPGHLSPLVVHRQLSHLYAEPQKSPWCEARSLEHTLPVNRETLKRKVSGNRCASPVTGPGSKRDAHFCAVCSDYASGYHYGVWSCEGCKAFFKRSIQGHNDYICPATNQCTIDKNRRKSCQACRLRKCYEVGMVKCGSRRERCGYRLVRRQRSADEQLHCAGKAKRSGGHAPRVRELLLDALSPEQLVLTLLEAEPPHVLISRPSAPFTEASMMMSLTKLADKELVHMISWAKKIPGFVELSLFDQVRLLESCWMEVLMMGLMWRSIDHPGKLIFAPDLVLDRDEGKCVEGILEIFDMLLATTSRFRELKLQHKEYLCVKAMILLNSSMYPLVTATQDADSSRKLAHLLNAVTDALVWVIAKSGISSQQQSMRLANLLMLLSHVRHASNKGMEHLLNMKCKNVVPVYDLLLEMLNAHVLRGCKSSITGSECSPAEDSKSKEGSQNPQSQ

Ki [1]: > 10 µM
mobilization of intracellular calcium by compound alone ([2]; G-1 200 nM, E2 100 nM): incapable of inducing a response
effect of G15 exposure on subsequent calcium response to G-1 or estrogen ([2]; then G-1 200 nM or E2 100 nM): substantially reduced the response
inhibition of G-1-mediated activation of PI3K [3]: capable of inhibiting
inhibition of estrogen-mediated PI3K response [3]: effectively blocked
effect on estrogen-mediated PI3K response [4]: no effect
effect on estrogen-mediated PI3K response [5]: no effect
inhibition of estrogen and G-1 stimulation of PI3K [6]: able to inhibit
SMILES: Brc1cc2c(cc1[C@@H]1Nc3ccccc3[C@@H]3C=CC[C@@H]31)OCO2 (racemic) [G15, 4-(6-Bromo-benzo[1,3]dioxol-5-yl)-3a,4,5,9b-tetrahydro-3H-cyclopenta[c]quinoline]
reduction of E2-induced uterine epithelial proliferation [7]: approximately 50%
effect of G15 pretreatment on the G-1 effect on immobility time ([8]; G15 10 nmol/mouse + G-1 1 nmol/mouse): significantly attenuated
effect of G15 pretreatment on the E2 effect on immobility time ([8]; G15 25 nmol/mouse + soluble E2 5 mg/kg): significantly attenuated
